# Legend:
# Format in all cases: in vivo, rat
# [1] = tested on: cocaine preference in rats; test: CPP test, MEAI as a treatment for cocaine preference in rats; conditions: rats conditioned with cocaine 15 mg/kg
# Method: (§1) Two groups were tested: One group received MEAI (four different doses), while the second group received cocaine in each conditioning day. Additionally, some rats that received cocaine were treated with MEAI on the test day to determine if MEAI has a treatment-like effect.
# In the CPP assay, the rats learned to associate a reward with an environmental cue. Two groups of rats were put through a three-day baseline period during which each rat was allowed to freely move during 20 minutes from a striped to a smooth compartment in a closed arena. Time measurements were taken to determine which compartment the rat spent more time in (i.e., preferred). Baseline data was determined as an average duration of time spent in each compartment. After the baseline period, a training period of 5 days was conducted in which rats were injected with saline (I.P.) in the morning and placed in the preferred compartment for 20 minutes. […] The duration time spent in each compartment was calculated as the difference between the baseline time and the testing time (seconds) as previously described. […]
# The two groups were divided as values below 100 seconds in a non-preferred compartment (MEAI A) and above 100 seconds (MEAI B). […] The behavioral data were analyzed with Ordinary one-way ANOVA. Data was expressed as mean±SEM and a probability value of […] was considered significant. n=5-12 rats per group. […]
# rats [2] = test: Side effects observed in rats dosed with MEAI during CPP conditioning; conditions: anxiety, diarrhea, secretion of vaginal plug
# Method: (§2) In the CPP assay, the rats learned to associate a reward with an environmental cue. Two groups of rats were put through a three-day baseline period during which each rat was allowed to freely move during 20 minutes from a striped to a smooth compartment in a closed arena. Time measurements were taken to determine which compartment the rat spent more time in (i.e., preferred). Baseline data was determined as an average duration of time spent in each compartment. After the baseline period, a training period of 5 days was conducted in which rats were injected with saline (I.P.) in the morning and placed in the preferred compartment for 20 minutes. Four hours after the saline injection, cocaine (15 mg/kg I.P.) or MEAI (4 doses; 20, 10, 5 and 2.5 mg/kg I.P.) was injected and the rat was placed in the less preferred compartment for 20 minutes. On the 6th day, a CPP test was conducted (identical to the baseline period) to determine if MEAI imparts a reward-like effect similar to cocaine. The duration time spent in each compartment was calculated as the difference between the baseline time and the testing time (seconds) as previously described.
# We started testing with 20 mg/kg of MEAI. […] Due to these side effects, we decided to test lower doses of MEAI as opposed to higher doses. Accordingly, the following dose tested was 10 mg/kg of MEAI. 51% of the rats receiving this dose had side effects, including anxiety, aggressiveness, piloerection, tremors low body posture, diarrhea, and secretion of “vaginal plug,” with a trend towards improved symptoms, although not statistically significant, compared to the 20 mg/kg dose. […] Overall, the mean that was most negative was for the dose 5 mg/kg, and therefore we decided to test the efficacy of this dose as a treatment for cocaine preference in rats.
# rats [3] = test: Conditioned Place Preference (CPP) model, reward-like effect of MEAI; conditions: 5 conditioning days, test on 6th day, difference from baseline
# Method: as §1, §2
# In the first part of this study, we examined whether administration of MEAI in four different doses […] reward.
smiles,measurement,setting,value
"COc1ccc2c(c1)CC(N)C2 (stereo not shown) [MEAI, 5-methoxy-2-aminoindan]","decrease of reward in cocaine-conditioned rats, 5 mg/kg versus 10 mg/kg",[1]; MEAI 5 mg/kg i.p. compared with 10 mg/kg i.p. on test day (FIG. 2),better results in decreasing reward
same,compartment preference of cocaine-conditioned rats after treatment,"[1]; MEAI 5 mg/kg i.p. on test day, 10 min before test",mixed
same,rats presenting side effects,rats [2]; MEAI 2.5 mg/kg I.P.,21.4%
same,rats presenting side effects,rats [2]; MEAI 5 mg/kg I.P.,20.2%
same,rats presenting side effects,"rats [2]; MEAI 10 mg/kg I.P., aggressiveness, piloerection, tremors, low body posture",51%
same,rats presenting side effects,"rats [2]; MEAI 20 mg/kg I.P., aggressiveness, piloerection, tremors, low body posture",65.7%
same,duration of time spent in a non-preferred place (reward),rats [3]; MEAI 2.5 mg/kg I.P.,negative
same,duration of time spent in a non-preferred place (reward),rats [3]; MEAI 5 mg/kg I.P.,negative
same,duration of time spent in a non-preferred place (reward),rats [3]; MEAI 10 mg/kg I.P.,rewarding effect
same,duration of time spent in a non-preferred place (reward),rats [3]; MEAI 20 mg/kg I.P.,low reward
